Tests used:
[1] = test system: P. falciparum 3D7 parasites; test: Time course of schizont rupture and merozoite invasion/ring formation; assay type: cell-based, Plasmodium falciparum; settings: 100 μg/mL
Description: 50 μL of synchronous 3D7 parasites at high parasitemia (5-10%), at approximately 32 hrs trophozoites were incubated as for GIAs with or without inhibitors (100 μg/mL). From approximately 44-48 hr schizonts parasite samples were collected, every 3 hrs for 15 hrs. Cells were stained and analysed as for GIAs to evaluate parasitemia and parasite stage.
To define the mechanism of action of heparin and heparin-like molecules Applicant performed time-course studies of schizont rupture, merozoite invasion and intra-erythrocytic development of P. falciparum in the presence of heparin. Parasite stages were evaluated using flow-cytometry, differentiating between late stage trophozoites and schizont versus ring stage parasites with ethidium bromide staining. […] No inhibition of infra-erythrocytic growth was observed (data not shown).

[2] = target: T1, lactoferrin (Homo sapiens, UniProt P02788); test: Heparin-BSA binding assay (positive control protein); settings: data not shown
T1 construct: purchased
T1 sequence (P02788 20-710, species assumed): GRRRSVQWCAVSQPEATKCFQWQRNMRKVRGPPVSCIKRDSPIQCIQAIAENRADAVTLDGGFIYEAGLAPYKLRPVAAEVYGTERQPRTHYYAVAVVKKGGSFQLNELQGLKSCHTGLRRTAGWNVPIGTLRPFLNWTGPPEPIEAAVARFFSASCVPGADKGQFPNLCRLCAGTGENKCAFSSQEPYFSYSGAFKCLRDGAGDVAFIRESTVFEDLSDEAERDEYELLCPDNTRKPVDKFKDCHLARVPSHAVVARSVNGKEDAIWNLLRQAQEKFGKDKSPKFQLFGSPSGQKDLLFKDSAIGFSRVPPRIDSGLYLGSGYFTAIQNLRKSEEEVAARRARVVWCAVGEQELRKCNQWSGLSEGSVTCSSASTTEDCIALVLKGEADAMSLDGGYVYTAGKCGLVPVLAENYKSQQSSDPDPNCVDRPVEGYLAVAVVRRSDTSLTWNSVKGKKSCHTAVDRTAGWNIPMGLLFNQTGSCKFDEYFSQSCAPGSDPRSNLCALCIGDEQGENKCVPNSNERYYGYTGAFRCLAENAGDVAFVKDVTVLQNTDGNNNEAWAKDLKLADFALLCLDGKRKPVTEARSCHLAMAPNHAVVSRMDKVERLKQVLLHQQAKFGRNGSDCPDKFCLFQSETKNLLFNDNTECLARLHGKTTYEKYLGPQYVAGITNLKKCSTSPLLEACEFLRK
Description: (§1) Recombinant merozoite antigens were coated (1 μg/mL) onto 96 well plates (Nunc Maxisorb) in HT-PBS overnight at 4° C. Plates were washed and blocked with 1% casein, 1 hr, room temperature. Plates were incubated with heparin-BSA conjugate with soluble inhibitors and detected with anti-BSA (rabbit) (Sigma-Aldrich) antibodies and anti-rabbit -HRP. Detection was performed with 2,2′-azino-bis(3-ethylbenzthiazoline-6-sulphonic acid) (Sigma-Aldrich) monitored for colour change and measured for absorbance at 405 nm. All incubations were performed in HT-PBS 0.1% casein 0:05% Tween20, 1 hr at room temperature. Plates were washed 3 times HT-PBS 0.05% Tween20 between incubations.

[3] = test system: purified P. falciparum merozoites invading RBCs; test: Invasion inhibition assay (IIA) using purified merozoites; assay type: cell-based, Plasmodium falciparum
Description: Purified merozoites were mixed with uninfected RBCs and cultured using standard conditions in 96 well U-bottom plates at a final volume of 50 μl or 100 μl per well. Specific assay conditions were varied for different test conditions, as described in the Results section of the manuscript. Assays were typically performed under static conditions. Some assays were also performed with agitation of merozoite:RBC suspensions.
To test the activity of inhibitory compounds on invasion (Supporting Information Table 3), E64 treated schizonts were resuspended and filtered in culture medium without human serum. A typical merozoite invasion inhibition assay consisted of filtered merozoites (40 ul) added to RBC suspension (5 ul at […]; final concentration 1% hematocrit) and inhibitory compounds (5 ul at 10-times the final concentration required) in 96-well plates. Merozoite:RBCs suspensions containing inhibitors were incubated for one hour and then washed twice with culture medium to remove inhibitors, then resuspended in fresh culture media and incubated and analysed as for standard merozoite invasion assays. A number of compounds were also tested for inhibition of schizont rupture by incubating late stage schizonts (1-2% parasitaemia, 1% haematocrit in 50 ul) with a 1 in 10 dilution of compounds and monitoring the course of schizont rupture at 3 time points over an 8 hour period by flow cytometry.

[4] = target: T2, MSP1-42 (Plasmodium falciparum, UniProt Q8I0U8); test: Heparin-BSA binding assay; parameters: a C-terminal 42kDa (MSP1-42) fragment; made in house; host or cells: E. coli; species or system P. falciparum; settings: soluble inhibitor
T2 sequence (Q8I0U8 1327-1699): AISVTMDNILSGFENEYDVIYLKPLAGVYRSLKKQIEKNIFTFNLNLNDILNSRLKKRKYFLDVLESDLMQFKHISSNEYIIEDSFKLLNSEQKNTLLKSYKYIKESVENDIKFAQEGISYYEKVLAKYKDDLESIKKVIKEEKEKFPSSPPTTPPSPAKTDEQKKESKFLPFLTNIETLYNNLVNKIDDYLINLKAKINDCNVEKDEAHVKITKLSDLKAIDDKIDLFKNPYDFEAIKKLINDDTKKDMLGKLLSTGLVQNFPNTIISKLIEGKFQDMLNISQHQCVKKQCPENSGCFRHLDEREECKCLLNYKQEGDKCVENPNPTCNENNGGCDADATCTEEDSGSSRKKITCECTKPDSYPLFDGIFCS
Description: as §1

[5] = target: T2, MSP1-42; test: Binding of native merozoite proteins to heparin-agarose beads with soluble inhibitors; parameters: proteolytically processed into 83 kDa, 30 kDa, 38 kDa and a C-terminal 42kDa (MSP1-42) fragment; endogenous in cells; host or cells: P. falciparum schizont-stage cultures, Triton X-100 extract; species or system P. falciparum; settings: soluble inhibitor 200 μg/mL
Description: Synchronized schizont stage (40-48 hr, 5-8% parasitemia) cultures were used for protein extraction. Uninfected erythrocytes were lysed with 0.15% saponin (Kodak) on ice for ten minutes. Remaining pellets were washed three times with cold HT-PBS. Protein from schizonts was extracted with 5 times volume of 1% TritonX100 (TX100) (Sigma-Aldrich, Australia), HT-PBS with protease inhibitors (Roche). Insoluble components were pelleted by centrifugation and supernatants collected. Schizont TX100 extracted proteins were bound to heparin-agarose beads (Sigma-Aldrich, Australia) as previously described. Heparin-agarose beads were washed once with 1% casein in PBS, once in PBS, and then blocked with 1% casein in PBS overnight at 4° C. TX100 merozoite protein extracts where incubated with beads containing 0.1% casein and 200 μg/mL of test inhibitor, or PBS as control, overnight at 4° C.; 50 μL of packed beads and 100 μL protein and inhibitor were used or each test sample. Inhibitors used were heparin and CSC. Unbound proteins in the supernatant were collected through Micro Bio-Spin Chromatography Columns (Bio-Rad). After incubation, beads were washed five times with PBS containing 0.1% casein and 1% Triton X-100. Bound proteins were eluted from beads with 50 μL of warmed reducing sample buffer. Bound and unbound proteins were separated by SDS-PAGE under reducing conditions and blotted onto membranes for probing with antibody detection with anti-MSP1 or anti-EBA175. 36. Baum J, Chen L, Healer J, Lopaticki S, Boyle M, et al. (2009) Reticulocyte-binding protein homologue 5—an essential adhesin involved in invasion of human erythrocytes by Plasmodium falciparum: Int J Parasitol 39: 371-380.

Heparin
rates of merozoite invasion and ring formation [1]: very low | schizont rupture compared to control [1]: some delay, but not complete inhibition | inhibition of intra-erythrocytic growth ([1]; data not shown): No inhibition | inhibition of lactoferrin binding to heparin-BSA [2]: inhibited | inhibition of merozoite invasion in IIA [3]: effectively inhibited merozoite invasion | inhibition of heparin-BSA binding to recombinant MSP1-42 [4]: inhibited in a concentration-dependent manner | inhibition of native MSP1-42 binding to heparin-agarose beads [5]: effectively inhibited
